Biological target: T1, mPTPB (Mycobacterium tuberculosis protein tyrosine phosphatase B) (Mycobacterium tuberculosis, UniProt I6WXK4)
T1 construct: gene ptpB
Assay: biochemical
Parameters: mPTPB phosphatase inhibition, pNPP substrate, absorbance at 405 nm
Details: read-out: 50 uM inhibition rate (%)

T1 sequence (I6WXK4 whole entry, looked up): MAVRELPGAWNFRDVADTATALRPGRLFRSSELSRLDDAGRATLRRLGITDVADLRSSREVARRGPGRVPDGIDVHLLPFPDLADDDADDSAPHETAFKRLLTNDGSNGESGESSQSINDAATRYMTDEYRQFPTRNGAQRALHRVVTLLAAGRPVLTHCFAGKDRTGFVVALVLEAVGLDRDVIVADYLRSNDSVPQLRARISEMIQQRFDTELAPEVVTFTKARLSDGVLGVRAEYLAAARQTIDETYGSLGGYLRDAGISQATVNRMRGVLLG

Row | SMILES | inhibition at 50 µM
1 | CC(C)C1CCC2(C)CCC3(C)CC4=C(CO)CCC4C4(C)CC4C3C12 (stereo not shown) [compound 2, asperterpenoid E] | 46.8%
2 | CC(C)C1CCC2(C)CCC3(C)CC4=C(C(=O)O)CCC4C4(C)CC4C3C12 (stereo not shown) [compound 1, asperterpenoid D] | 52.8%
3 | CC(C)[C@H]1CC[C@@]2(C)CC[C@]3(CO)CC4=C(C(=O)O)CC[C@H]4[C@]4(C)C[C@@H]4[C@H]3[C@H]12 [asperterpenoid A] | 98.2%
4 | CC(C)[C@H]1C[C@@H](O)[C@@]2(C)CC[C@]3(CO)CC4=C(C(=O)O)CC[C@H]4[C@]4(C)C[C@@H]4[C@H]3[C@H]12 [asperterpenoid C] | 45.1%
5 | CC(C)[C@H]1CC[C@@]2(C)CC[C@]3(C(=O)O)CC4=C(C(=O)O)CC[C@H]4[C@]4(C)C[C@@H]4[C@H]3[C@H]12 [asperterpenoid B] | 98.9%
6 | CC(C)C1CCC2(C)CCC3(CO)CC4=C(CO)CCC4C4(C)CC4C3C12 (stereo not shown) [compound 3, asperterpenoid F] | 48%
7 | CC1=C2C[C@@]3(C)CC[C@]4(C)CC[C@H](C(C)C)[C@H]4[C@@H]3[C@H]3C[C@@]3(C)[C@@H]2CC1 [preasperterpenoid A] | 31.1%

Source: paper PMC8717867, “The Oxidation Cascade of a Rare Multifunctional P450 Enzyme Involved in Asperterpenoid A Biosynthesis” (Frontiers in Chemistry, 2021)
